The values below come from patent US11306098B2, “Substituted pyrrolo[1,2-a]pyrazines and pyrrolo[1,2-a][1,4]diazepines as TREX1 inhibitors” (VENENUM BIODESIGN, LLC, priority 2019, dated 2022).

Experiment [1] has as its target human TREX1 (Homo sapiens (Human), UniProt Q9NSU2). Kind of experiment: TREX1 Exonuclease Assay (human enzyme). Type of experiment: biochemical. The note with it: human TREX1 0.5 nM, FAM/BHQ1-labeled DNA oligonucleotide. As to the method:
(§1) The TREX1 Exonuclease assay is an exemplary in vitro assay for measuring the activity of the TREX1 inhibitors of the present invention. In this assay, TREX1 exonuclease activity was evaluated by measuring the increase in fluorescence resulting from TREX1-catalyzed removal of a quencher from the 3′ end of a FAM-labeled DNA oligonucleotide (5′FAM-CCA CGA GAG CGT-BHQ1-3′). The assay was conducted using Wild Type (WT) human or murine TREX1 enzyme constructs corresponding to amino acids 55-297 of UniProt ID Q9NSU2-1 (SEQ ID NO: 1), or amino acids 1-242 of UniProt ID Q91XB0-1 (SEQ ID NO: 2), respectively. See, e.g., Example A.
(§2) For human TREX1, the nucleotide sequence of the gene construct was codon optimized for expression in the bacterial host. The sequence was incorporated into the pMAL-c5e vector (NEB) downstream of a solubility-promoting MBP (maltose binding protein) fusion partner. The fusion protein product was expressed in E. coli strain BL21 (DE3) (Millipore) and purified in a series of chromatographic steps. Initial steps were conducted using a dextrin sepharose affinity column followed by a Q-sepharose ion exchange column (both GE Healthcare). After the second column the MBP partner was removed by incubation with enterokinase (NEB). Further purification was carried out with the second application of a Q-sepharose column followed by a Superdex 75 (GE Healthcare) size exclusion column. Finally, a heparin sepharose column (GE Healthcare) was applied to remove contaminating nucleotides. Similar methods were used in the preparation of the murine TREX1 enzyme and are described in Example B set forth below.
(§3) To evaluate the effect of compounds on TREX1 activity, test compounds were serially diluted (11-point, 3-fold) from 10 mM stock solutions and delivered to 384-well low-volume assay plates in 80 nL DMSO using an acoustic dispenser. Next, 4 μL of human TREX1 (0.5 nM), or murine TREX1 (1 nM), diluted in assay buffer (20 mM Tris pH 7.5, 5 mM MgCl2, 100 μg/mL BSA, 0.002% Triton X-100, 2 mM DTT), was added to the assay plate. After incubating for 30 minutes, 4 μL of labeled DNA oligonucleotide (500 nM) in assay buffer was added to initiate TREX1 exonuclease activity. The reaction was allowed to proceed for 45 minutes at room temperature prior to the addition of 4 μL of 150 mM EDTA to halt TREX1 activity. Assay plates were equilibrated for an additional 30 minutes and read on an EnVision Plate Reader (Perkin Elmer) to measure fluorescence emission at 535 nm following excitation at 485 nm. Fluorescence was plotted as a function of log molar compound concentration and fit to four-parameter dose-response equation to determine compound IC50.

The test system of experiment [2] is interferon stimulated genes (ISGs) in THP1 Dual cells. Kind of experiment: RT-qPCR assay of interferon stimulated gene expression. Type of experiment: cell-based, human. The settings on record: substance alone, 24 hours, normalized to GAPDH, unstimulated control = 1. An excerpt:
Example D is a cell based assay that measures the increase in the expression of interferon stimulated genes (ISG) by RT-qPCR that are induced by TREX1 inhibitors when THP1 Dual™ cells are transfected with double-stranded DNA. The double stranded DNA used to transfect cells was VACV-70 (Invivogen), a 70 base pair oligonucleotide containing viral DNA motifs (Unterholzner L. et al., 2010. IFI16 is an innate immune sensor for intracellular DNA. Nat Immunol. 11(11):997-1004). Activation of cGAS-STING pathway in THP1 Dual™ cells increases the expression of ISGs.
The RT-qPCR assay was used to assess the ability of TREX1 inhibitors to enhance the expression of interferon stimulated genes (ISGs) in cells transfected with double-stranded DNA. The double stranded DNA used to transfect cells was VACV-70 (Invivogen), a 70 base pair oligonucleotide containing viral DNA motifs (Unterholzner L. et al., 2010. IFI16 is an innate immune sensor for intracellular DNA. Nat Immunol. 11(11):997-1004). Human THP1 Dual™ cells (Invivogen), were treated with test compound in the presence or absence of 1,200 ng/mL VACV-70, or with VACV-70 alone, for 24 hours. Cells were harvested by centrifugation and washed with phosphate buffer saline. Total RNA was isolated using Qiagen RNeasy mini kit. Genomic DNA was degraded using Thermo Scientific DNase 1 kit. Total RNA was quantified using a Nanodrop spectrophotometer. Using equal amounts of RNA, cDNA was synthesized using Invitrogen Superstrand III First Strand synthesis kit. Target and reference gene expression levels were determined by RT-qPCR using TaqMan gene expression assays and a Stratagene Mx3005P QPCR system (all reagents were from TaqMan, Applied Biosystems). Data were analyzed by the Comparative CT method. GAPDH was used for normalization. Target genes that were analyzed included interferon stimulated genes (INF-β, CXCL10, IFIT1, IFIT2, IFIT3, IFI44, and IFI44L).
In general terms: Quantitative PCR measures a nucleic acid by following its amplification.

For experiment [3], the system named is THP1 Dual cells (ISRE Lucia reporter, cGAS-STING pathway). Nature of the experiment: THP1 monocyte assay, ISRE Lucia luciferase reporter. It is filed as cell-based, human. The settings on record: 48 hours, luciferase signal versus control wells without compound. From the text:
Example C is a cell-based assay for TREX1 inhibitors using THP1 Dual™ cells (Invivogen), a human monocyte cell line that has stable integration of an Interferon Stimulated Response Element (ISRE) Lucia reporter gene. The Lucia gene encodes a secreted luciferase reporter protein, under the control of an ISG54 minimal promoter in conjunction with five IFN-stimulated response elements. Activation of the cGAS-STING pathway in THP1 Dual™ cells leads to enhanced luciferase secretion and increased luminescence.
A cell-based assay was established using THP1 Dual™ cells (Invivogen), a human monocyte cell line that has stable integration of an Interferon Stimulated Response Element (ISRE) Lucia reporter gene. The Lucia gene encodes a secreted luciferase reporter protein, under the control of an ISG54 minimal promoter in conjunction with five IFN-stimulated response elements. Activation of the cGAS-STING pathway in these cells leads to enhanced luciferase secretion. The assay was conducted in standard 384-well white tissue culture plates. Cells (25,000 in 25 μL RPMI 1640 containing 10% Heat-Inactivated FBS, 1× Glutagro, 10 mM HEPES, 1 mM sodium pyruvate, 1× Pen/Strep, 100 μg/mL Normocin, 100 μg/mL Zeocin, 10 μg/mL Blasticidin) were added to the plate followed by 25 μL of compound in the same media+0.2% DMSO. The assay was incubated for 48 hours at 37° C. in 5% CO2. An aliquot of 5 μl was removed to combine with 12.5 μL of the luciferase detection reagent, QUANTI-Luc™ Gold (Invivogen) in a white 384-well plate. The luminescent signal was then read using an EnVision plate reader (Perkin Elmer). The fold activation was calculated by dividing the signal in wells containing test compound by the signal in the control wells without compound (see Table 7).
(A reporter such as luciferase makes a cellular process visible.)

Experiment [4] deals with murine TREX1 (Mus musculus (Mouse), UniProt Q91XB0). Nature of the experiment: TREX1 Exonuclease Assay (murine enzyme). The settings on record: murine TREX1 1 nM, FAM/BHQ1-labeled DNA oligonucleotide. It is filed as biochemical. Here is the method: as §1, §2, §3
murine TREX1, sequence (Q91XB0 1-242): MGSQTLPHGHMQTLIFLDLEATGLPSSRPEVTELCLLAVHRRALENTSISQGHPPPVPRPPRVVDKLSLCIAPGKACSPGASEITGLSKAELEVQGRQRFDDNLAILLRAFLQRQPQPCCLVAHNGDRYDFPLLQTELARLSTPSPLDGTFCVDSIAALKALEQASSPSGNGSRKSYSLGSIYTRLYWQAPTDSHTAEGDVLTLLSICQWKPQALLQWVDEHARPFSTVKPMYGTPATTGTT

human TREX1, sequence (Q9NSU2 1-242): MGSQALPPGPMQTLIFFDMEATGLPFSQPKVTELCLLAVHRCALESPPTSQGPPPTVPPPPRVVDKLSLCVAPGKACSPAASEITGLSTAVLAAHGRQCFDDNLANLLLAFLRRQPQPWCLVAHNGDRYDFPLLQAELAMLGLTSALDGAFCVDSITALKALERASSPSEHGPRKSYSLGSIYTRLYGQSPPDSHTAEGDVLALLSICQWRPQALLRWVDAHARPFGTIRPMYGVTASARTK

By IC50 is commonly meant the point on the concentration scale where inhibition reaches its midpoint. Read a low IC50 as inhibition by little substance. For the compound `N[C@@H]1C[C@H]2C(=O)N([C@H](CC(=O)O)C(=O)NCc3ccc(Cl)c(Cl)c3)CCC(CCc3ccccc3)N2C1` (stereo partly drawn) [Example 15], the IC50 in experiment [1] is less than 1000 nM. In experiment [2], this compound yielded a CXCL10 expression of 1, an IFI44L expression of 20, an IFI44 expression of 20 and an IFIT1 expression of 10. In experiment [2], the IFIT2 expression was found to be 32, the IFIT3 expression was determined as 20 and the IFN-β expression stood at 5. In experiment [3], the “Fold activation @ 10 μM” value amounted to 2. In addition, the 50% inhibitory concentration (IC50) in experiment [4] is less than 1000 nM.
In experiment [1], `NC(=O)CC[C@H](C(=O)NCc1ccc(Cl)c(Cl)c1)N1CCC(CCc2ccccc2)N2C[C@H](N)C[C@H]2C1=O` (stereo partly drawn) [Example 16] returned an IC50 of less than 1000 nM. In experiment [2], this compound registered a CXCL10 expression of 2, an IFI44L expression of 15, an IFI44 expression of 14 and an IFIT1 expression of 11. In experiment [2], this compound gave an IFIT2 expression of 41, an IFIT3 expression of 25 and an IFN-β expression of 6. The “Fold activation @ 10 μM” value in experiment [3] is 4. The 50% inhibitory concentration (IC50) in experiment [4] is less than 1000 nM.
`N[C@@H]1C[C@H]2C(=O)N([C@H](CCc3nnn[nH]3)C(=O)NCc3ccc(Cl)c(Cl)c3)CCC(CCc3ccccc3)N2C1` (stereo partly drawn) [Example 36]: the IC50 in experiment [1] was less than 1000 nM. Besides, in experiment [2], the CXCL10 expression is 2, the IFI44L expression was 16, the IFI44 expression was 20 and the IFIT1 expression was 8. Also, in experiment [2], the IFIT2 expression amounted to 26, the IFIT3 expression worked out at 16 and the IFN-β expression is 3. Further, the “Fold activation @ 10 μM” value in experiment [3] came to 7. In addition, the IC50 in experiment [4] is less than 1000 nM.
